Source: US20260294906A1, “TREATING PSORIASIS USING A SMALL MOLECULE INHIBITOR OF TUMOR NECROSIS FACTOR ALPHA” (SANOFI, priority 2023, published 2026)
“And” between values parts separate entries of the source, which are not always exact repeats. Equal values may be shown once. “Also recorded” adds a separate entry of the source.

What was measured:
Format in all cases: in vivo, human
IL-17F = assay: Serum levels of biomarker IL-17F (single molecule counting sandwich immunoassay)
Experimental: (§1) The primary objective of the study was to assess the safety, tolerability, and clinical efficacy of Compound 1 at 200 mg BID via oral administration. Also evaluated was the clinical effect of Compound 1 as compared to placebo on the percent change in PASI and TLS scores from baseline to week 2 and week 4. The percent change in PASI score from baseline to week 4 was determined. TLS score was also assessed over the same time period. Also assessed was the effect of Compound 1 on biomarkers of psoriasis. Blood samples collected at predetermined time points were processed to quantify serum levels of biomarkers, including interleukin (IL)-17A, IL-17F, and IL-22 by high sensitivity methods. IL-17A, IL-17F and IL-22 are the main cytokines released by Th17 cells. Plasma levels of Compound 1 were measured to assess pharmacokinetics in the study population.
(§2) Two study interventions were used, Compound 1 and placebo. The Compound 1 intervention comprised 4× tablets of Compound 1 50 mg twice daily, i.e. 200 mg BID, for 4 weeks. The placebo intervention was 4× tablets of placebo twice daily for 4 weeks. Tablets were administered orally.
Blood samples were processed for analysis of IL-17A, IL-17F and IL-22 in serum samples by high sensitivity methods. Samples were collected according to the schedule of activity described above.
As indicated above, peripheral blood samples collected at predetermined time points were processed to quantify serum levels of biomarkers of psoriasis including IL-17A, IL-17F, and IL-22. Levels of IL-17A and IL-17F were quantified using a single molecule counting sandwich immunoassay (SMCxPro™, Millipore—see also Hwang et al., Methods (2019) 158:69-76). Levels of IL-22 were quantified using a single-molecule array ELISA (SIMOA™, Myriad RBM—see also Rissin et al., Anal Chem (2011) 83(6):2279-2285). Statistical analysis was based on geometric mean ratio to baseline; a two-sample t-test at significance alpha level of 5% was used for calculation of the p-values.

[1] = test system: patients with mild to moderate psoriasis; assay: Clinical response by static Investigator's Global Assessment (sIGA) score, phase 1 placebo-controlled study; settings: 200 mg BID
Experimental: (§3) A double-blind, randomized, placebo-controlled phase 1 study was carried out in participants with mild to moderate psoriasis. Study participants were randomized to 200 mg twice a day (BID) of Compound 1 or placebo in 2:1 ratio (approximately 24 in the treatment group and 12 in the placebo group). The study comprised an up to 4-week screening period, and a 4-week treatment period with Compound 1 or placebo. An end-of-study visit was carried out 10±3 days after the last investigational medicinal product (IMP) administration.
as §2
(§4) The interventions were used in two arms of the study. Arm 1 was the experimental arm and it involved participants receiving 200 mg of Compound BID for 4 weeks under fed conditions. Arm 2 was the placebo arm and it involved participants receiving the matching placebo tablets for 4 weeks under fed conditions.
The sIGA employed in this study is a six-point ordinal scale used to assess the global severity of disease over the body as a whole, as measured by the overall degree of induration, scaling and erythema of a subject's psoriatic lesions. For statistical analysis, the scale was assigned scores of 0 to 5, for ‘clear’ to ‘very severe’, respectively.
Scoring was accorded to a subject on a scale of 0 to 5 for each of erythema, induration, and scaling; a mean sIGA score was calculated as the mean average of those individual scores and this was translated into an overall sIGA score (an integer between 0 and 5) as described in the tables below:
The sIGA score was assessed as described herein.

[2] = Plasma levels of Compound 1 in the study population (pharmacokinetics); settings: 200 mg BID oral, fed
Experimental: as §1, §2
The interventions were used in two arms of the study. Arm 1 was the experimental arm and it involved participants receiving 200 mg of Compound BID for 4 weeks under fed conditions. […]

[3] = test system: patients with mild to moderate psoriasis; assay: Clinical response by Psoriasis Area and Severity Index (PASI) score, phase 1 placebo-controlled study; settings: for LSm (±SE) % improvement from baseline in total PASI score: 200 mg BID oral, fed; for LSm (±SE) % improvement from baseline in total PASI score / ΔLSm (±SE) (Compound 1 minus placebo) in % improvement from baseline in total PASI score: MMRM
Experimental: as §3, §1, §2, §4
The PASI scoring system evaluates psoriasis based on the body surface area (BSA) involvement and morphological characteristics of the plaques (see, e.g., EMA Guidelines on clinical investigation of medicinal products indicated for the treatment of psoriasis, Nov. 18, 2004). BSA estimation was performed using the ‘palm’ (i.e., the subject's flat hand and thumb together, fingers not included). The palm thus defined represented 1% of the total BSA. The PASI combines assessments of four body areas: head (h, 10%), upper extremities (u, 20%), trunk (t, 30%) and lower extremities (1, 40%). Using the palm to assess BSA (as described above) the proportion of skin affected by psoriasis in each area was given a numerical score (A) representing the proportion involved: 1 (0 to 9%); 2 (10 to 29%); 3 (30 to 49%); 4 (50 to 69%); 5 (70 to 89%) and 6 (90 to 100%). Within each area the severity of three signs, erythema (E), thickness/induration (I), and desquamation/scaling (D), was each assessed on a five-point scale: 0, none; 1, mild; 2, moderate; 3, severe; 4, very severe. The PASI ranges from 0 to 72 and is calculated using the following formula: […]
The PASI score was assessed at baseline, 2 weeks and 4 weeks. Table 4 below presents the LSm (±SE) for each treatment and ΔLSm (Compound 1 minus placebo) with 90% confidence interval (CI) in percentage improvement from baseline in the total PASI score at week 2 and week 4.
The results in Table 4 were obtained using the MMRM.
Table 5 below presents the mean (±SEM) percentage improvements from baseline in the total PASI score at week 2 and week 4 in the patient population with PASI<10 (mild) or PASI≥[…] at baseline.
The results in Table 5 come from standard descriptive analysis, ^(1)N=3, ^(2)N=15.

For `CN1C(=O)c2cccc(OC(F)F)c2[C@H]2C[C@@H]1c1nc3ccc(-c4cnc(C5(N)CCC5)nc4)cc3n12` [Compound 1, (7R,14R)-11-[2-(1-aminocyclobutyl)pyrimidin-5-yl]-1-(difluoromethoxy)-6-methyl-6,7-dihydro-7,14-methanobenzimidazo[1,2-b][2,5]benzodiazocin-5(14H)-one], the “Serum level of IL-17F (in words)” value (IL-17F; after treatment for 4 weeks) was “substantially decreased”, the “Serum level of IL-17F, geometric mean (geometric SE)” value (“Serum level … (geometric SE)” below) (IL-17F; baseline (before treatment)) was 2.63 (1.19) pg/mL and the “Serum level … (geometric SE)” value (IL-17F; week 2, 200 mg BID) was 1.65 (1.21) pg/mL. The “Serum level … (geometric SE)” value (IL-17F; week 4, 200 mg BID) was 1.35 (1.21) pg/mL, the “change in sIGA score (in words)” value ([1]; compared with placebo) was “clinically important change in sIGA score after 4 weeks of treatment; also recorded: a higher percentage of patients receiving Compound 1 improved from ‘moderate’ disease at baseline, to ‘mild’ or ‘almost clear’ at week 2 and week 4” and the “% of subjects with no change in sIGA from baseline” value ([1]; week 2) was 68.0%. For the same molecule, the “% of subjects with sIGA change from baseline of −1” value ([1]; week 2) was 32.0%, the “Number of subjects with no change in sIGA from baseline” value ([1]; week 2) was 17 and the “Number of subjects with sIGA change from baseline of +1” value ([1]; week 2) was 0. The “Number of subjects with sIGA change from baseline of −1” value ([1]; week 2) was 8, the “% of subjects with no change in sIGA from baseline” value ([1]; week 4) was 38.5% and the “% of subjects with sIGA change from baseline of +1” value ([1]; week 4) was 4.2%. The “Number of subjects with no change in sIGA from baseline” value ([1]; week 4) was 9, the “Number of subjects with sIGA change from baseline of +1” value ([1]; week 4) was 1 and the “Number of subjects with sIGA change from baseline of −1” value ([1]; week 4) was 14. The “% of subjects with sIGA change from baseline of −1 (improvement by at least 1 severity level)” value ([1]; week 4, placebo 0%) was 58.3%, the “Mean pre-dose plasma levels / steady state (in words)” value ([2]; Day 8 through Day 29) was “steady state was achieved within the first week and maintained until the end of the treatment” and the “Mean pre-dose and post-dose plasma concentrations (in words)” value ([2]; compared with previous study in healthy participants) was “consistent with analogous values observed at the same dose in a previous study in healthy participants; also recorded: consistent with pharmacokinetic data previously obtained in healthy participants”. For the same molecule, the “Mean (±SEM) % improvement from baseline in total PASI score” value (“Mean (±SEM) % improvement from baseline” below) ([3]; PASI < 10 (mild) population, week 2, 200 mg BID, N = 16, SEM 3.98) was 21.24% and 21.2%, the “Mean (±SEM) % improvement from baseline” value ([3]; PASI < 10 (mild) population, week 4, 200 mg BID, N = 15, SEM 5.34) was 33.8% and 33.83% and the “Mean (±SEM) % improvement from baseline” value ([3]; PASI ≥ 10 (moderate) population, week 2, 200 mg BID, N = 9) was 9.3% and 9.31% and 9.3 (3.60) %. The “Mean (±SEM) % improvement from baseline” value ([3]; PASI ≥ 10 (moderate) population, week 4, 200 mg BID, N = 9) was 33.2% and 33.19% and 33.2 (4.03) %, the “improvement in PASI score (in words)” value ([3]; after 4 weeks of treatment) was “clinically meaningful” and the “improvement in psoriasis severity / clinical efficacy (in words)” value ([3]; compared to placebo, 4-week treatment, 200 mg BID) was “rapid and statistically significant improvement in psoriasis severity compared to placebo as early as week 2; also recorded: consistent clinical efficacy in a 4-week treatment period; also recorded: clinically effective, with sustained clinical response; also recorded: effective in improving clinical parameters in human patients”. The “LSm (±SE) % improvement from baseline in total PASI score” value ([3]; week 2, vs placebo 4.12%, p=0.005) was 17.73% and 17.73 (2.75) %, the “ΔLSm (±SE) (Compound 1 minus placebo) in % improvement from baseline in total PASI score” value ([3]; week 2, 200 mg BID, 90% CI 5.28 to 21.94) was 13.61% and 13.61 (4.92) % and the “LSm (±SE) % improvement from baseline in total PASI score” value ([3]; week 4, vs placebo 15.71%, p=0.009) was 35.09% and 35.09 (4.47) %. The “ΔLSm (±SE) (Compound 1 minus placebo) in % improvement from baseline in total PASI score” value ([3]; week 4, 200 mg BID, 90% CI 6.28 to 32.48) was 19.4% and 19.38% and 19.38 (7.75) % and the “mean reduction in total PASI score from baseline” value ([3]; week 4, FIG. 2, placebo around 1.25 points) was “around 3.0 points”.
